What was measured:
LNCaP cells [1] = experiment: Percentage of intact cells (Hoechst 33342 / propidium iodide counting), LNCaP; assay type: cell-based, human; conditions: for Concentrations decreasing cell viability / number of intact cells: 48 h, tested 10–500 µM; for Effect of caspase inhibitor on LCA-induced cell death: 24 h co-exposure, 40 µM LCA + 10 µM inhibitor
Method: (§1) For apoptotic and necrotic cell death measurements, LNCaP and PC-3 cells were seeded at densities of 1 × 10^5 and 0.5 × 10^5 cells/ml, respectively, in 24-well plates in 2% stripped-FBS. Cells were then treated with several concentrations of bile acids in the presence (LNCaP) or absence (PC-3) of 0.1 nM DHT. […] After a 15 min incubation at 37°C, cells were observed and counted under a Nikon Eclipse (TE-2000U) inverted fluorescent microscope at 20× magnification. […] To measure mitochondrial membrane potential (MMP), cells were treated with LCA for 1, 4 or 8 h, and tetramethylrhodamine ethyl ester (TMRE) was added to each well at a final concentration of 50 nM. TMRE is a cell permeable, positively charged dye that accumulates in active negatively charged mitochondria.
(§2) All experiments were performed in at least triplicate using cells after various passages and the data are presented as mean ± SEM. Statistically significant differences (p < 0.05) between various treatments and untreated cells were determined using a two-tailed Student t-test with Bonferroni correction for multiple comparisons. IC50 values for inhibition of cell viability were calculated using a sigmoidal curve-fitting model of log-inhibitor concentration versus normalized inhibition response, with variable slope (GraphPad Prism v5.03, GraphPad Software, San Diego, CA).

PC-3 cells [2] = experiment: Percentage of intact cells (Hoechst 33342 / propidium iodide counting), PC-3; assay type: cell-based, human; conditions: for Concentrations decreasing cell viability / number of intact cells: PC-3, 48 h, tested 10–500 µM; for Effect of caspase inhibitor on LCA-induced cell death: PC-3, 24 h co-exposure, 50 µM LCA + 10 µM inhibitor
Method: as §1, §2

PC-3 cells [3] = system: PC-3 cells; design: method as in Choi et al., 2003; conditions: ref Choi et al., 2003; cited from earlier work
caspase-9 [4] = experiment: Caspase-9 activity (Ac-LEHD-AFC cleavage) in PC-3 cell extracts; assay type: cell-based, human; conditions: PC-3, 24 h, 25–75 µM
Method: (§3) PC-3 and LNCaP cells were seeded in 6-well plates at densities of 400000 or 750000 cells per well, respectively, in 0.5 ml culture medium containing 2% stripped FBS and 24 h later they were exposed to various concentrations of LCA in fresh medium for another 24 h. Proteins were then extracted from harvested cells using 1× RIPA buffer (Millipore, Billerica, MA) containing 1× protease inhibitor cocktail, centrifuged at 13,000 g for 5 min at 4°C to remove cell debris, and frozen at −80°C overnight. Protein concentrations were then quantified using a BCA protein detection kit (Thermo Scientific, Waltham, MA). Caspase activities were determined using fluorogenic caspase substrates selective for either caspase-3 (5 µM Ac-DEVD-AFC), caspase-9 (10 µM Ac-LEHD-AFC) or caspase-8 (10 µM Ac-IETD-AFC) in 10 µg of extracted protein suspended in caspase reaction buffer (20 mM PIPES at pH 7.2, 30 mM NaCl, 10 mM DTT, 1 mM EDTA, 0.1% CHAPS, 10% sucrose). The time-dependent release of 7-amino-4-trifluoromethyl coumarin (AFC) was measured using a SpectroMax M5 microplate reader (Molecular Devices, Sunnydale, CA) at an excitation wavelength of 400 nm and an emission wavelength of 505 nm. Measurements were recorded at 2 min intervals for 90 min. A standard curve of AFC fluorescence was used to calculate the amount of AFC released (in picomoles) during each reaction.

caspase-8 [5] = experiment: Caspase-8 activity (Ac-IETD-AFC cleavage) in PC-3 cell extracts; assay type: cell-based, human; conditions: PC-3, 24 h, 25–75 µM
Method: as §3

LNCaP cells [6] = experiment: DHT-stimulated LNCaP cell proliferation (real-time impedance, E-plates); assay type: cell-based, human
LNCaP cells [7] = experiment: Western blot of apoptosis proteins, LNCaP; assay type: cell-based, human; conditions: 24 h, 25–75 µM
Method: (§4) Crude protein extracts (50 µg) were resolved by electrophoresis using 10% sodium dodecyl sulfate-polyacrylamide gels and then transferred to a PVDF Immobilon-P membrane (Bio-Rad, Mississauga, ON). Blots were blocked using 5% milk powder (Selection brand, Marché Jean-Talon, Montréal, QC) and incubated with antibodies as follows: 1:250 dilution for anti-caspase-3, 1:1000 for anti-cleaved PARP, 1:1000 for anti-Bcl-2, 1:1000 for anti-Bax, and 1:1000 for anti-Bid. Immunoreactive proteins were exposed to anti-rabbit horseradish peroxidise-conjugated secondary antibodies (Millipore) that were diluted 1:5000. Antigen-antibody complexes were detected using Immobilon ECL Western Chemiluminescent HRP Substrate (Millipore) and recorded with a Versadoc imaging system (Bio-Rad). Total protein content per well was determined using 1 × Amido Black staining solution (Sigma-Aldrich).

RWPE-1 cells = experiment: Percentage of intact cells (Hoechst 33342 / propidium iodide counting), RWPE-1; assay type: cell-based, human; conditions: RWPE-1, 48 h, 50 or 75 µM
PC-3 cells [8] = experiment: Western blot of apoptosis proteins, PC-3; assay type: cell-based, human; conditions: PC-3, 24 h
Method: as §4

PC-3 cells [9] = experiment: Mitochondrial membrane potential (TMRE), PC-3; assay type: cell-based, human; conditions: PC-3, 75 µM, as early as after 1 h
caspase-3 [10] = experiment: Caspase-3 activity (Ac-DEVD-AFC cleavage) in LNCaP cell extracts; assay type: cell-based, human; conditions: 24 h, 25–75 µM
Method: as §3

[11] = system: LNCaP human prostate cancer cells; experiment: Extra/intracellular distribution by mass spectrometry, LNCaP; assay type: in vitro ADME; conditions: for % of compound recovered, Cells / % of compound recovered, Medium: LNCaP, 24 h, mean ± SD
Method: (§5) Mass spectrometry-based analysis of LCA and UDCA was performed as previously reported ([Bourque & Titorenko, 2009]). […] The extracted lipids were dried under nitrogen and resuspended in chloroform. Immediately prior to injection the extracted lipids were combined with a 2:1 methanol:chloroform mixture supplemented with 0.1% (v/v) ammonium hydroxide. The sample was injected directly into a Thermo Orbitrap Velos equipped with a HESI-II ion source (Thermo Scientific, Waltham, MA, USA) at a flow rate of 5 µl/min. Spectra were obtained in negative-ion mode. The source voltage was set to 4.0 kV, a capillary temperature of 275°C, a sheath gas flow of 5 (arbitrary units) and an auxiliary gas flow of 1 (arbitrary units). Acquired spectra were exported from Xcalibur software (Thermo Scientific) and then deconvoluted and deisotoped using Excel macros.

caspase-8 [12] = experiment: Caspase-8 activity (Ac-IETD-AFC cleavage) in LNCaP cell extracts; assay type: cell-based, human; conditions: 24 h, 25–75 µM
Method: as §3

caspase-9 [13] = experiment: Caspase-9 activity (Ac-LEHD-AFC cleavage) in LNCaP cell extracts; assay type: cell-based, human; conditions: 24 h, 25–75 µM
Method: as §3

[14] = system: PC-3 human prostate cancer cells; experiment: Extra/intracellular distribution by mass spectrometry, PC-3; assay type: in vitro ADME; conditions: for % of compound recovered, Cells / % of compound recovered, Medium: 24 h, mean ± SD
Method: as §5

caspase-3 [15] = experiment: Caspase-3 activity (Ac-DEVD-AFC cleavage) in PC-3 cell extracts; assay type: cell-based, human; conditions: PC-3, 24 h, 25–75 µM
Method: as §3

C[C@H](CCC(=O)O)[C@H]1CC[C@H]2[C@@H]3[C@H](O)C[C@@H]4C[C@H](O)CC[C@]4(C)[C@H]3C[C@H](O)[C@]12C [CA, cholic acid]
Concentrations decreasing cell viability / number of intact cells (LNCaP cells [1]): > 500 µM
Concentrations decreasing cell viability / number of intact cells (PC-3 cells [2]): > 500 µM

C[C@H](CCC(=O)O)[C@H]1CC[C@H]2[C@@H]3[C@H](O)C[C@@H]4C[C@H](O)CC[C@]4(C)[C@H]3CC[C@]12C [CDCA, chenodeoxycholic acid]
Concentrations that did not result in significant cell death (PC-3 cells [3]): > 100 µM
Concentrations decreasing cell viability / number of intact cells (LNCaP cells [1]): above 100 µM
Concentrations decreasing cell viability / number of intact cells (PC-3 cells [2]): above 100 µM

C[C@H](CCC(=O)O)[C@H]1CC[C@H]2[C@@H]3CC[C@@H]4C[C@H](O)CC[C@]4(C)[C@H]3C[C@H](O)[C@]12C [DCA, deoxycholic acid]
Concentrations decreasing cell viability / number of intact cells (LNCaP cells [1]): above 100 µM
Concentrations decreasing cell viability / number of intact cells (PC-3 cells [2]): above 100 µM

C[C@H](CCC(=O)O)[C@H]1CC[C@H]2[C@@H]3C[C@H](O)[C@@H]4C[C@H](O)CC[C@]4(C)[C@H]3CC[C@]12C [HDCA, hyodeoxycholic acid]
Concentrations decreasing cell viability / number of intact cells (LNCaP cells [1]): above 300 µM
Concentrations decreasing cell viability / number of intact cells (PC-3 cells [2]): above 300 µM

C[C@H](CCC(=O)O)[C@H]1CC[C@H]2[C@@H]3CC[C@@H]4C[C@H](O)CC[C@]4(C)[C@H]3CC[C@]12C [LCA, Lithocholic acid]
Caspase-9 activity (caspase-9 [4]): statistically significant increases
Levels of active caspase-8 (caspase-8 [5]): increased levels
IC50 (LNCaP cells [6]; Homo sapiens, LNCaP, co-treated with 0.1 nM DHT, 72 h, read-out: IC50 for inhibition of proliferation of androgen-stimulated cells): 8.5 µM
Concentrations that inhibit proliferation of AD prostate cancer cells (LNCaP cells [6]; well below those needed to induce apoptosis): 2.5 to 10 µM
Effect on pro-apoptotic proteins Bax and Bid (LNCaP cells [7]): cleavage
Levels of 89 kDa PARP fragment (LNCaP cells [7]): significantly elevated
Levels of cleaved, active 17 and 20 kDa caspase-3 subunits (LNCaP cells [7]): increased levels
Effect on viability of non-tumorigenic cells (RWPE-1 cells): without decreasing the viability
Levels of 89 kDa PARP fragment elevated (PC-3 cells [8]): not in PC-3 cells
Bcl-2 levels (PC-3 cells [8]; 25–75 µM): decreased levels
Effect on pro-apoptotic proteins Bax and Bid (PC-3 cells [8]; 25–75 µM): cleavage
Levels of cleaved, active 17 and 20 kDa caspase-3 subunits (PC-3 cells [8]; 25–75 µM): increased levels
Change in mitochondrial membrane potential (MMP) (PC-3 cells [9]): marked decrease
Catalytic activity of caspase-3 (caspase-3 [10]): increased
% of nominal concentration present in extracellular medium ([11]; LNCaP cultures after 24 h): ≤ 98%
% of compound recovered, Cells ([11]; 25 µM): 2.72 ± 1.10%
% of compound recovered, Medium ([11]; 25 µM): 97.28 ± 1.10%
% of compound recovered, Cells ([11]; 50 µM): 5.85 ± 2.45%
% of compound recovered, Medium ([11]; 50 µM): 94.15 ± 2.45%
IC50 (LNCaP cells [1]; Homo sapiens, 48 h treatment, with 0.1 nM DHT, read-out: IC50 for decrease in number of intact cells): 40.5 ± 0.07 µM
IC50 (PC-3 cells [2]; Homo sapiens, PC-3, 48 h treatment, read-out: IC50 for decrease in number of intact cells): 74.9 ± 0.25 µM
Levels of active caspase-8 (caspase-8 [12]): increased levels
Caspase-9 activity (caspase-9 [13]): statistically significant increases
% of compound recovered, Cells ([14]; PC-3, 50 µM): 2.09 ± 0.05%
% of compound recovered, Medium ([14]; PC-3, 50 µM): 97.91 ± 0.05%
% of compound recovered, Cells ([14]; PC-3, 75 µM): 2.39 ± 1.93%
% of compound recovered, Medium ([14]; PC-3, 75 µM): 97.61 ± 1.93%
% of nominal concentration present in extracellular medium ([14]; PC-3 cultures after 24 h): ≤ 98%
Catalytic activity of caspase-3 (caspase-3 [15]): increased

C[C@H](CCC(=O)O)[C@H]1CC[C@H]2[C@@H]3[C@@H](O)C[C@@H]4C[C@H](O)CC[C@]4(C)[C@H]3CC[C@]12C [UDCA, ursodeoxycholic acid, reference compound]
Concentrations that did not result in significant cell death (PC-3 cells [3]): > 100 µM
% of compound recovered, Cells ([11]; 25 µM): 9.60 ± 3.86%
% of compound recovered, Medium ([11]; 25 µM): 90.40 ± 3.86%
% of compound recovered, Cells ([11]; 50 µM): 4.23 ± 0.10%
% of compound recovered, Medium ([11]; 50 µM): 95.77 ± 0.10%
Concentrations decreasing cell viability / number of intact cells (LNCaP cells [1]): above 300 µM
Concentrations decreasing cell viability / number of intact cells (PC-3 cells [2]): above 300 µM
% of compound recovered, Cells ([14]; PC-3, 50 µM): 2.44 ± 0.17%
% of compound recovered, Medium ([14]; PC-3, 50 µM): 97.56 ± 0.17%
% of compound recovered, Cells ([14]; PC-3, 75 µM): 2.43 ± 0.67%
% of compound recovered, Medium ([14]; PC-3, 75 µM): 97.57 ± 0.67%

z-DEVD-fmk
Effect of caspase inhibitor on LCA-induced cell death (LNCaP cells [1]): partially inhibited
Effect of caspase inhibitor on LCA-induced cell death (PC-3 cells [2]): partially inhibited

z-IETD-fmk
Effect of caspase inhibitor on LCA-induced cell death (LNCaP cells [1]): alleviated
Effect of caspase inhibitor on LCA-induced cell death (PC-3 cells [2]): alleviated

From article PMC3740138, “Bile acids induce apoptosis selectively in androgen-dependent and -independent prostate cancer cells” (PeerJ, 2013)
